The subject of this test is C57BL/6 mice. The test can be described thus: LPS neuroinflammation model. Format: in vivo. As to conditions: 2 or 5 mg/kg IP daily for 4 days, LPS 5 mg/kg on Day 2. The procedure: All experiments were carried out with 10-week-old female C57BL/6 mice (20–25 g). The animals were divided into six experimental groups of three mice in each experiment: Group 1, treated with vehicle; Group 2, treated with SB26019 {2 mg/kg body weight (mpk)}; Group 3, treated with SB26019 (5 mpk); Group 4, treated with LPS and vehicle; Group 5, treated with LPS and SB26019 (2 mpk); and Group 6, treated with LPS and SB26019 (5 mpk). SB26019 (2 or 5 mpk) or vehicle {distilled water containing 5% DMSO and 40% polyethylene glycol 400 (TCI; N0433)} was administered with IP injection daily for 4 days. Five mpk of LPS (Sigma; L2880) in PBS was administered by IP injection on Day 2 for a single challenge. All mice were sacrificed on Day 5.
Mice were anesthetized with a mixture of alfaxalone and xylazine (5:1 ratio) and transcardially perfused with cold PBS. Mouse brains were harvested and fixed using 10% NBF (Sigma; HT501128) for 2 h. After washing with PBS for 30 min three times, fixed brains were embedded in OCT compound (Leica; #3801480) for frozen coronal sectioning at a thickness of 7 μm. […]
The perfused brains were minced with a 10 T scalpel blade. […] Microglia in the interphase between 70% and 37% Percoll solution was transferred and washed with HBSS media. mRNA was extracted from the microglia and analyzed with qPCR. […]

On to `COc1ccc2c(c1O)OC(C)(C)C=C2c1cccc2c1oc1ccccc12` [Compound 8], for which the “Microglial activation (Iba-1-positive region of the brain)” value is “efficiently regulated microglial activation in all brain regions in a dose-dependent manner”; the “Transcription levels of cytokines and chemokines in brain microglia (qPCR)” value is “efficiently inhibited the LPS-mediated upregulation of cytokines and chemokines”.

Source of the values: paper PMC9743128, “Phenotype-based screening rediscovered benzopyran-embedded microtubule inhibitors as anti-neuroinflammatory agents by modulating the tubulin–p65 interaction” (Experimental & Molecular Medicine, 2022).
